From patent publication US8389544B2, “Isoquinolone compounds as subtype-selective agonists for melatonin receptors MT1 and MT2” (The Hong Kong University of Science and Technology, priority 2007, dated 2013)
Read-outs that look alike come from different tables or passages of the source.

What was measured:
Type in all cases: cell-based
MT2 receptor = biological target: T1, MT2 receptor (Homo sapiens, UniProt P49286); test: ERK phosphorylation assay, MT2; parameters: expressed in transfected cells; conditions: HEK293 cells; isoquinolone 1 μM or 2-iodomelatonin 100 nM, 5 min; against unstimulated control cells
T1 sequence (P49286 1-362): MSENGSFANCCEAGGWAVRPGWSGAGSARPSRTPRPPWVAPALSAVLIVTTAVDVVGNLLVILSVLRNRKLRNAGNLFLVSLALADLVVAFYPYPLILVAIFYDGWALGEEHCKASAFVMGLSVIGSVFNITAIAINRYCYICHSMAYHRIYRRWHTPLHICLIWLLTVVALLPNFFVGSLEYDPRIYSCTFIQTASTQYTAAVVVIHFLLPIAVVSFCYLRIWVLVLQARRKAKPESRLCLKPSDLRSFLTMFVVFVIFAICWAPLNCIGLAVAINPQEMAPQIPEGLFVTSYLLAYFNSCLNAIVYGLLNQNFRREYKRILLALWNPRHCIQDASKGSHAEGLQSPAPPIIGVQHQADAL
Description: 3. ERK Phosphorylation Assay This assay indicates the ability of the novel compounds to activate MT1 or MT2 receptors by measuring downstream events of the activated receptor, in this case ERK phosphorylation. The amount of phosphorylated ERK1/2 was detected and quantified in western blots. The data in Table 2 is expressed as the fold stimulation against the unstimulated control cells. 6. Detection of ERK phosphorylation […] Stimulation was terminated by aspiration on ice and immediate lysis by 200 μl of 1× protein gel loading buffer. Lysates were denatured by boiling for 5 min and cooled at room temperature until loading. 30 μl of each lysate was separated on 12% SDS-PAGE and transferred to nitrocellulose membrane by electroblotting. Success of transfer was visualized by Ponceau S staining. All subsequent incubations were under gentle agitation (˜100 strokes/min). […] Primary antisera against phosphorylated- or total-ERK1/2 were incubated with the blocked membrane at an appropriate dilution (1:4000-1:2000) in Blotto for overnight at 4° C. The membrane was washed with fresh Blotto for 3 times of 15 min each, then incubated with secondary antiserum (horseradish peroxidase-conjugated anti-rabbit IgG) at the dilution of 1:1000 in 1×TBS for 1 h at room temperature. The membrane was quickly rinsed with excessive 1×TBS for 3 times, and followed by 4 washes of 1×TBS for 10 min. By the end, a premix of luminol-based chemiluminescence substrate solution was prepared (1 ml for every 8 cm^2 of membrane) and overlaid onto the washed membrane to incubate for 1 min. After removing excessive solution, the membrane was covered with saran wrap and an autograph with appropriate exposure was developed on X-ray film in dark room. The image was scanned and the band intensities quantified using ImageJ 1.34. Data was expressed as the percentage response of the vehicle-treated or untreated samples. Experiments were performed at least 3 times and the average responses±SEM were presented.

MT2/293 = test: MTT cytotoxicity assay, MT2/293 cells; conditions: percentage of untreated control cells
Method: This assay evaluates the cytotoxic effects of the novel isoquinolone compounds based on the cellular viability under chronic treatments. Viable cells but not dead cells can turn the substrate into a colored product, which yields higher absorbance. […] A low percentage indicates low cytoviability (or high cytotoxicity).
5. Cytotoxicity Test Using MTT Assay
Cells were seeded into clear 96-well plate at an appropriate density in 100 μl growth medium and were allowed to grow overnight. The novel isoquinolone compounds were diluted to desired concentrations using fresh growth medium, and these dilutions were used to replace the growth media in each well. After incubating for 24-96 h, 10 μl of the MTT labeling reagent (Roche) was added to each well and the cells were incubated in a CO2 incubator for 4 h. 100 μl solubilization buffer was then added into each well and incubated overnight for complete solubilization of the purple formazan crystals. […] Each condition was performed in triplicate in every experiment and the results were expressed as % of blank control±SD.

MT1 receptor = MT1 receptor (Homo sapiens, UniProt P48039); test: FLIPR Ca2+ mobilization assay, MT1; parameters: expressed in transfected cells; host or cells: COS-7 (monkey kidney fibroblast); conditions: for logEC50 ± SEM: NSR = No significant response; for % Response of 2-IMT: relative to 2-IMT response
Chain of MT1 receptor (P48039 whole entry): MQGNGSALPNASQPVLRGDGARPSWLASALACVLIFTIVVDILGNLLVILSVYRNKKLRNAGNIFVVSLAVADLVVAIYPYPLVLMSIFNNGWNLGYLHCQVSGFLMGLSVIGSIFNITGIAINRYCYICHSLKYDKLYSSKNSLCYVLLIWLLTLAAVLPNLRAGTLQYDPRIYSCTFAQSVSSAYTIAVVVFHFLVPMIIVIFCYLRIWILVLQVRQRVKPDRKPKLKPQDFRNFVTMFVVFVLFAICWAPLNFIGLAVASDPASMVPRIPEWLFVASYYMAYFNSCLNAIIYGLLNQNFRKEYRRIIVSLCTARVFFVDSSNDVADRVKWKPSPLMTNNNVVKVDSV
Method: 1. FLIPR Ca^2+ Mobilization Assay
This assay indicates the ability of the novel compounds to activate MT1 and MT2 receptors by measuring downstream events of the activated receptor, in this case intracellular calcium mobilization.
1. Intracellular Ca^2+ Mobilization Assay Using Fluorometric Imaging Plate Reader (FLIPR®)
An intracellular calcium mobilization assay was performed to screen the isoquinolone compounds against the two melatonin receptor subtypes, MT1 and MT2 on the fluorometric imaging plate reader (FLIPR®). In order to facilitate the screening process in a high-throughput manner, chimeric G proteins with the ability to couple to a range of GPCR as well as activate intracellular Ca^2+ were employed. The melatonin receptor subtype (either MT1 or MT2) was co-expressed with the G-protein chimeras in COS-7 (monkey kidney fibroblast) cells. During the assay, cells were exposed to the novel isoquinolone compounds and the corresponding change in fluorescence was measured. Both single point and dose-dependant assays were performed for each isoquinolone compound and based on the latter a dose response curve was generated and the corresponding EC50 for each receptor subtype determined.
Specifically, COS-7 cells were seeded at a density of 20,000 cells/well into 96-well plates designed for FLIPR assays, using Opti-MEM with 10% FCS at a volume of 100 μl/well. Transfection was carried out using Lipofectamine 2000® reagent. In each well, 0.2 μg of the GPCR and G protein cDNA were diluted with 25 μl of Opti-MEM and 0.2 μl of Lipofectamine 2000® was diluted with another 25 μl of Opti-MEM. They were added to appropriate wells after the two components were mixed for 20 min.
After 48 hours of incubation post-transfection, 50 μl of the transfection medium was removed from each well followed by the labelling of transfected cells with 100 μl of 2 μM Fluo-4 in calcium containing HBSS (Hank's balanced salt solution) with 20 mM HEPES (N-[2-hydroxyethyl]piperazine—N′-[2-ethanesulfonic acid]; pH 7.5) and 2.5 mM probenecid (anion exchanger inhibitor, freshly prepared) for 1 hour at 37° C. 70 μl of 3× drugs (isoquinolinone compounds encompassing the invention) were prepared and aliquoted into the corresponding wells in the V-well drug plate. Changes in fluorescence were detected in the FLIPR 96 with an excitation wavelength of 488 nm. The background fluorescence was adjusted to the range of 8,000 to 12,000 units by altering the laser power and exposure time (typically 0.4 W and 0.4 sec, respectively) for the FLIPR setup. 50 μl of each agonist solution was added to the corresponding wells and the fluorescent emission (between 510 and 560 nm) was monitored for 3 min. Results were expressed as change in fluorescent intensity units (FIU). Concentration-response curves were generated by determining the maximal change in FIU of each data set. Numerical analysis of the statistics and EC50 (median effective concentration) values were performed on GraphPad Prism version 3.03.
Then the intracellular Ca^2+ mobilization assays using the Fluorometric Imaging Plate Reader (FLIPR®) were performed as described above.

[1] = Table 1, MT1 in COS-7 cells with chimeric G protein, log value, negative, NSR = no significant response
[2] = Table 2, MT1, log value, negative
[3] = Table 1, MT1 in COS-7 cells with chimeric G protein, log value, negative, NSR = no significant response, read-out: Log(EC50) ± SEM (converted)

Cn1ccc2cc(OC(=O)c3ccccc3)c(OC(=O)c3ccccc3)cc2c1=O [IS039]
ERK Phosphorylation MT2 Fold Stim. (MT2 receptor): 1.98 Fold | MTT Assay MT2/293 % Viability ± SEM (MT2/293): 117.6 ± 9.0% | Log(EC50) ± SEM (MT1 receptor; [1]): NSR | logEC50 ± SEM (MT1 receptor; [2]): NSR

COc1cc(COc2cc3ccn(C)c(=O)c3cc2OC)cc(OC)c1 [IS042]
ERK Phosphorylation MT2 Fold Stim. (MT2 receptor): 5.59 Fold | MTT Assay MT2/293 % Viability ± SEM (MT2/293): 56.3 ± 1.5% | % Response of 2-IMT (MT1 receptor; Table 1, MT1): 49.4% | EC50 (MT1 receptor; [3]): 12 nM | EC50 (MT1 receptor; Table 2, MT1, read-out: EC50): 12 nM

COc1cccc(COc2cc3ccn(C)c(=O)c3cc2OC)c1 [IS044]
ERK Phosphorylation MT2 Fold Stim. (MT2 receptor): 3.50 Fold | MTT Assay MT2/293 % Viability ± SEM (MT2/293): 112.5 ± 3.8% | % Response of 2-IMT (MT1 receptor; Table 1, MT1): 54.5% | Log(EC50) ± SEM (MT1 receptor; [1]): −6.79 ± 0.17 | logEC50 ± SEM (MT1 receptor; [2]): −6.79 ± 0.17 | EC50 (MT1 receptor; Table 2, MT1, read-out: EC50): 161 nM

COc1cccc(COc2cc3c(=O)n(C)ccc3cc2OC)c1 [IS521]
ERK Phosphorylation MT2 Fold Stim. (MT2 receptor): 3.01 Fold | MTT Assay MT2/293 % Viability ± SEM (MT2/293): 90.5 ± 11.7% | % Response of 2-IMT (MT1 receptor; Table 1, MT1): 31.8% | EC50 (MT1 receptor; [3]): 1860 nM | EC50 (MT1 receptor; Table 2, MT1, read-out: EC50): 1860 nM

COc1cc(COc2cc3c(=O)n(C)ccc3cc2OC)cc(OC)c1 [IS523]
ERK Phosphorylation MT2 Fold Stim. (MT2 receptor): 2.07 Fold | MTT Assay MT2/293 % Viability ± SEM (MT2/293): 46.2 ± 3.7% | Log(EC50) ± SEM (MT1 receptor; [1]): NSR | logEC50 ± SEM (MT1 receptor; [2]): NSR

COc1cc2ccn(C)c(=O)c2cc1OCc1ccc(C(C)(C)C)cc1 [IS526]
MTT Assay MT2/293 % Viability ± SEM (MT2/293): 24.7 ± 1.6% | % Response of 2-IMT (MT1 receptor; Table 1, MT1): 46.2% | Log(EC50) ± SEM (MT1 receptor; [1]): −5.35 ± 1.32 | logEC50 ± SEM (MT1 receptor; [2]): −5.35 ± 1.32 | EC50 (MT1 receptor; Table 2, MT1, read-out: EC50): 4490 nM

COc1cccc(COc2c(OC)ccc3c(=O)n(C)ccc23)c1 [IS527]
ERK Phosphorylation MT2 Fold Stim. (MT2 receptor): 2.21 Fold | MTT Assay MT2/293 % Viability ± SEM (MT2/293): 46.8 ± 0.2% | Log(EC50) ± SEM (MT1 receptor; [1]): NSR | logEC50 ± SEM (MT1 receptor; [2]): NSR

COc1cc(COc2c(OC)ccc3c(=O)n(C)ccc23)cc(OC)c1 [IS528]
ERK Phosphorylation MT2 Fold Stim. (MT2 receptor): 1.71 Fold | MTT Assay MT2/293 % Viability ± SEM (MT2/293): 42.4 ± 1.3% | % Response of 2-IMT (MT1 receptor; Table 1, MT1): 42.1% | Log(EC50) ± SEM (MT1 receptor; [1]): −5.15 ± 0.51 | logEC50 ± SEM (MT1 receptor; [2]): −5.15 ± 0.51 | EC50 (MT1 receptor; Table 2, MT1, read-out: EC50): 7140 nM

COc1ccc2c(=O)n(C)ccc2c1OCc1ccc(C)cc1 [IS529]
ERK Phosphorylation MT2 Fold Stim. (MT2 receptor): 1.23 Fold | MTT Assay MT2/293 % Viability ± SEM (MT2/293): 48.5 ± 1.6% | Log(EC50) ± SEM (MT1 receptor; [1]): NSR | logEC50 ± SEM (MT1 receptor; [2]): NSR
